Laboratory results taken from patent US8309584B2, “Sulfur containing pyrazole-heterocycle derivatives as cannabinoid CB1 receptor antagonists” (Green Cross Corporation, priority 2008, dated 2012).

Target: T1, rat CB-1 receptor (Rattus norvegicus, UniProt P20272)
T1 construct: The tissue obtained from the brain of SD rats was homogenized; from tissue; host or cells: SD rat brain membrane homogenate
Experiment: rat cannabinoid-1 receptor (CB1R) binding affinity assay
Conditions: not given
Experimental: The tissue obtained from the brain of SD rats was homogenized with a Dounce homogenate system in TME(50 mM Tris, 3 mM MgCl2 and 1 mM EDTA, pH 7.4) at 4° C., and the homogenate was centrifuged at 48,000 g for 30 min. at 4° C. The pellet was resuspended in 5 ml of TME and the suspension was divided into aliquots and stored at −70° C. until its use in the following assay.
The tissue concentrations were determined by Bradford protein analysis, and 148 μl of brain tissue of the required concentration was added to the plate. The plate was covered and placed in a 30° C. incubator for 60 min, and then transformed on GF/B filtermat pretreated in polyethylenimine (PEI) using a cell harvester. Each filter was washed five times and dried at 60° C. for 1 hr. Then, the degree of radioactivity retained by the filter was measured using Wallac Microbeta™ (PerkinElmer Life Sciences, Inc., Massachusetts, U.S.A.) and the activity of the compound for inhibiting CB1 receptor was determined therefrom.

T1 sequence (P20272 whole entry): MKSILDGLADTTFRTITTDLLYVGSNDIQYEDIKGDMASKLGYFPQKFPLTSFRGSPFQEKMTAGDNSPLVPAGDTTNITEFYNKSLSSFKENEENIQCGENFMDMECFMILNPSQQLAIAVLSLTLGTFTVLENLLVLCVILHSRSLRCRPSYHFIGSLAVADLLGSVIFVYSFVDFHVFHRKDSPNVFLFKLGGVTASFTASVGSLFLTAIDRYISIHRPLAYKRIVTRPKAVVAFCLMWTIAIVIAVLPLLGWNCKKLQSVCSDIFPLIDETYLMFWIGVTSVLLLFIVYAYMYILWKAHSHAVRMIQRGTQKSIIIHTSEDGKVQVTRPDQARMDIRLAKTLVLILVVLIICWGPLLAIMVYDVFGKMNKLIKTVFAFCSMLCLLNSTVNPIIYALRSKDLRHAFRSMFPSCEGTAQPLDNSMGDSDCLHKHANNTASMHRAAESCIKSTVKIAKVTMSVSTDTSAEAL

Row | SMILES | IC50 [nM]
1 | CSc1c(-c2nnc(C3(C(F)(F)F)CC3)o2)nn(-c2ccccc2Cl)c1-c1ccc(Br)cc1 [Example 14, 2-(5-(4-bromophenyl)-1-(2-chlorophenyl)-4-(methylthio)-1H-pyrazol-3-yl)-5-(1-(trifluoromethyl)cyclopropyl)-1,3,4-oxadiazole] | 4.11

Same assay, conditions: [3H]CP-55940 radioligand, SD rat brain tissue homogenate, 30° C., 60 min; read-out: IC50

Row | SMILES | IC50 [nM]
2 | CSc1c(-c2nnc(C(C)(C)C)o2)nn(-c2ccc(Cl)cc2Cl)c1-c1ccc(Cl)cc1 [Example 1, 2-tert-butyl-5-(5-(4-chlorophenyl)-1-(2,4-dichlorophenyl)-4-(methylthio)-1H-pyrazol-3-yl)-1,3,4-oxadiazole] | 6.26
3 | CSc1c(-c2nnc(C3(C(F)(F)F)CC3)o2)nn(-c2ccc(Cl)cc2Cl)c1-c1ccc(Cl)cc1 [Example 2, 2-(5-(4-chlorophenyl)-1-(2,4-dichlorophenyl)-4-(methylthio)-1H-pyrazol-3-yl)-5-(1-(trifluoromethyl)cyclopropyl)-1,3,4-oxadiazole] | 6.63
4 | CSc1c(-c2nnc(C3(C(F)(F)F)CCC3)o2)nn(-c2ccc(Cl)cc2Cl)c1-c1ccc(Cl)cc1 [Example 3, 2-(5-(4-chlorophenyl)-1-(2,4-dichlorophenyl)-4-(methylthio)-1H-pyrazol-3-yl)-5-(1-(trifluoromethyl)cyclobutyl)-1,3,4-oxadiazole] | 9.71
5 | CSc1c(-c2nnc(C3(C(F)(F)F)CC3)o2)nn(-c2ccccc2Cl)c1-c1ccc(Cl)cc1 [Example 6, 2-(1-(2-chlorophenyl)-5-(4-chlorophenyl)-4-(methylthio)-1H-pyrazol-3-yl)-5-(1-(trifluoromethyl)cyclopropyl)-1,3,4-oxadiazole] | 8.3
6 | CSc1c(-c2nnc(C3(C(F)(F)F)CC3)o2)nn(-c2ccc(Cl)cc2Cl)c1-c1ccc(Br)cc1 [Example 10, 2-(5-(4-bromophenyl)-1-(2,4-dichlorophenyl)-4-(methylthio)-1H-pyrazol-3-yl)-5-(1-(trifluoromethyl)cyclopropyl)-1,3,4-oxadiazole] | 7.95
7 | CSc1c(-c2nnc(C3(C(F)(F)F)CCC3)o2)nn(-c2ccc(Cl)cc2Cl)c1-c1ccc(Br)cc1 [Example 11, 2-(5-(4-bromophenyl)-1-(2,4-dichlorophenyl)-4-(methylthio)-1H-pyrazol-3-yl)-5-(1-(trifluoromethyl)cyclobutyl)-1,3,4-oxadiazole] | 8.44
8 | CSc1c(-c2nnc(C3(c4ccc(Cl)cc4)CC3)o2)nn(-c2ccc(Cl)cc2Cl)c1-c1ccc(Br)cc1 [Example 12, 2-(5-(4-bromophenyl)-1-(2,4-dichlorophenyl)-4-(methylthio)-1H-pyrazol-3-yl)-5-(1-(4-chlorophenyl)cyclopropyl)-1,3,4-oxadiazole] | 9.23

Now from value to compound:

Row | IC50 [nM] | SMILES
9 | 5.26 | CSc1c(-c2nnc(C3(c4ccc(Cl)cc4)CC3)o2)nn(-c2ccc(Cl)cc2Cl)c1-c1ccc(Cl)cc1 [Example 4, 2-(5-(4-chlorophenyl)-1-(2,4-dichlorophenyl)-4-(methylthio)-1H-pyrazol-3-yl)-5-(1-(4-chlorophenyl)cyclopropyl)-1,3,4-oxadiazole]
10 | 4.21 | CSc1c(-c2nnc(C3(C(F)(F)F)CCC3)o2)nn(-c2ccccc2Cl)c1-c1ccc(Cl)cc1 [Example 7, 2-(1-(2-chlorophenyl)-5-(4-chlorophenyl)-4-(methylthio)-1H-pyrazol-3-yl)-5-(1-(trifluoromethyl)cyclobutyl)-1,3,4-oxadiazole]
11 | 4.61 | CSc1c(-c2nnc(C3(c4ccc(Cl)cc4)CC3)o2)nn(-c2ccccc2Cl)c1-c1ccc(Cl)cc1 [Example 8, 2-(1-(2-chlorophenyl)-5-(4-chlorophenyl)-4-(methylthio)-1H-pyrazol-3-yl)-5-(1-(4-chlorophenyl)cyclopropyl)-1,3,4-oxadiazole]
12 | 5.5 | CSc1c(-c2nnc(C(C)(C)C)o2)nn(-c2ccc(Cl)cc2Cl)c1-c1ccc(Br)cc1 [Example 9, 2-(5-(4-bromophenyl)-1-(2,4-dichlorophenyl)-4-(methylthio)-1H-pyrazol-3-yl)-5-tert-butyl-1,3,4-oxadiazole]
